Source: paper PMC9278454, “Dyhidro-β-agarofurans natural and synthetic as acetylcholinesterase and COX inhibitors: interaction with the peripheral anionic site (AChE-PAS), and anti-inflammatory potentials” (Journal of Enzyme Inhibition and Medicinal Chemistry, 2022)
Like-named read-outs stand apart in the source and are kept apart here.

Legend:
AChE [1] = target: T1, AChE (Electrophorus electricus, UniProt O42275); assay: biochemical
ovine COX-1 = target: T2, ovine COX-1 (Ovis aries, UniProt P05979); assay: COX Inhibitor Screening Assay kit, COX-1; format: biochemical
T2 construct: purchased 560131
T2 sequence (P05979 25-600): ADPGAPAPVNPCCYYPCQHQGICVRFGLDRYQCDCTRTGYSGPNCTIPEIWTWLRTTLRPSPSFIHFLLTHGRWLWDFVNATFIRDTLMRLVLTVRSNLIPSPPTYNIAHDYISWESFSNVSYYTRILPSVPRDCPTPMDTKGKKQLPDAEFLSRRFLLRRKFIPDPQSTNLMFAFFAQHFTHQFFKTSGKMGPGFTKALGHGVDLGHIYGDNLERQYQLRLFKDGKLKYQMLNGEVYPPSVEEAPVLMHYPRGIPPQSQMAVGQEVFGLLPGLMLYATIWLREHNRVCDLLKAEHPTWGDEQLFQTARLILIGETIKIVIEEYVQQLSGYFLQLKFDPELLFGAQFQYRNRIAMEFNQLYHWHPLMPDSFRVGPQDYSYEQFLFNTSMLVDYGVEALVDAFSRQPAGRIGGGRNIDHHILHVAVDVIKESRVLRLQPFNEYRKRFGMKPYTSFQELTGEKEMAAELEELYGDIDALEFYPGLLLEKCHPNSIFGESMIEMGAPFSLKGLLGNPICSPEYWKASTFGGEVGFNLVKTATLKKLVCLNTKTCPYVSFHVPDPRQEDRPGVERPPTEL

human recombinant COX-2 = target: T3, human recombinant COX-2 (Homo sapiens, UniProt P35354); assay: biochemical; format: biochemical; details: for IC50: average of 3 independent runs, read-out: COX-2 IC50 (µM)±SE
T3 construct: purchased 560131
T3 sequence (P35354 18-604): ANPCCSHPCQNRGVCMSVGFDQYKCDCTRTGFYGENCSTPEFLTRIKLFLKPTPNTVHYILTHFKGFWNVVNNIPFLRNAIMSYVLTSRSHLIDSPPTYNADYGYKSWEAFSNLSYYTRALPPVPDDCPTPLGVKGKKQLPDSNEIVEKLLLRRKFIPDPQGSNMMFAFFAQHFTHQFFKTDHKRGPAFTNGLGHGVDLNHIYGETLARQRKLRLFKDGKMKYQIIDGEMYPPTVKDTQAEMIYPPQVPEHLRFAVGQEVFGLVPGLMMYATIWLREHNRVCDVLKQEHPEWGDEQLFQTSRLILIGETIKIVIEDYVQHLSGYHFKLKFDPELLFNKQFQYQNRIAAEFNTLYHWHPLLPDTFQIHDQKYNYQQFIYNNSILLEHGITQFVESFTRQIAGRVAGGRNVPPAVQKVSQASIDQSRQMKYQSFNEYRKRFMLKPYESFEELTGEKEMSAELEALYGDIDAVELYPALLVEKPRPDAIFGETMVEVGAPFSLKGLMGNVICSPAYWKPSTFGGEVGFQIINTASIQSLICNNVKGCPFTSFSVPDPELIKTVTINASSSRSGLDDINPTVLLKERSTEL

PAS of EeAChE = PAS of EeAChE (Electrophorus electricus, UniProt O42275); assay: Propidium iodide displacement from the PAS of AChE (fluorescence); format: binding; details: EeAChE 7 µM, propidium iodide 8 µM; for % Displacement of propidium iodide 290 µM: compound 290 µM; for % Displacement of propidium iodide 340 µM: compound 340 µM
Method: The ability of compounds to competitively displace propidium iodide was evaluated by a fluorescence method[43]. […] Donepezil was used as reference compound. The blank contained propidium iodide of the same concentration in 1 mM Tris-HCl buffer pH 8.0. The measurements were carried out in triplicate on a microplate reader Perkin Elmer VictorX2 (Perkin Elmer, Singapur).

Tc-AChE = assay: Kinetic characterisation of AChE inhibition (Lineweaver-Burk); format: biochemical, Torpedo californica
Method: The rate of enzyme activity was measured at eight different concentrations of substrate acetylthiocholine iodide (ATC).
Data analysis was carried out with SigmaPlot v10.0.

AChE [2] = target: T1, AChE; details: read-out: AChE IC50 (µM)±SE; average of 3 independent runs
[3] = selectivity index, COX-1 IC50 / COX-2 IC50
[4] = read-out: COX-1 IC50 (µM)±SE, average of 3 independent runs

Chain of PAS of EeAChE (O42275 24-633): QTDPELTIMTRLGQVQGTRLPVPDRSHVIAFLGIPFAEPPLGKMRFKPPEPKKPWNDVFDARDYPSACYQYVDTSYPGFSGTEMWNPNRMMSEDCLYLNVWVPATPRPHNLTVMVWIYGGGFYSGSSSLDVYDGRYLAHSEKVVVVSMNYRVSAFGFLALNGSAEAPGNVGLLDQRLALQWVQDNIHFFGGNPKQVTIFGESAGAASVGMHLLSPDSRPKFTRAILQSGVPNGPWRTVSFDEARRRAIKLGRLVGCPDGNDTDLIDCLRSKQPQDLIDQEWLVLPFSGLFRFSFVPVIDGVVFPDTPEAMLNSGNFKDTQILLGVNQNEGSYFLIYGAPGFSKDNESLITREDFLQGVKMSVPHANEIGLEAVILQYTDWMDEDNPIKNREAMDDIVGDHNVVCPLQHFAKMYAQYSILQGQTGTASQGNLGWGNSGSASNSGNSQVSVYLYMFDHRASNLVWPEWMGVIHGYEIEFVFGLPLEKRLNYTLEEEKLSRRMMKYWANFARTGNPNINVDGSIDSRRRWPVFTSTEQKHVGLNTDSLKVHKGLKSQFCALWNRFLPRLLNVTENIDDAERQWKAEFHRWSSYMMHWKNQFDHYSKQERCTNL
T1 sequence (O42275 24-633): as above

SMILES	IC50 (AChE [1]) [µM]	IC50 (ovine COX-1) [µM]	SI(COX-1/COX-2) (human recombinant COX-2)	IC50 (human recombinant COX-2) [µM]	% Displacement of propidium iodide 290 µM (PAS of EeAChE) [%]	% Displacement of propidium iodide 340 µM (PAS of EeAChE) [%]	Mode of AChE inhibition (Tc-AChE; Lineweaver-Burk plots, eight concentrations of substrate ATC)	Km (Tc-AChE; unchanged at increasing concentrations of the inhibitor, substrate ATC) [µM]	SI(COX-1/COX-2) (human recombinant COX-2; [3])	IC50 (AChE [2]) [µM]	IC50 (ovine COX-1; [4]) [µM]
Cc1ccc(C(C)C)cc1O [Carvacrol, reference compound]	45 ± 0.031	–	–	–	–	–	–	–	–	–	–
CC1=CCC[C@@]2(C)CC[C@@H]3C[C@]12OC3(C)C [Compound 3, α-agarofuran]	26 ± 0.012	11.36 ± 0.035	66.82	0.17 ± 0.002	12.2 ± 0.2	15.8 ± 0.5	–	–	–	–	–
CC1(C)OC23CC1CCC2(C)CCC(O)C3(C)O (stereo not drawn) [Compound 4, 3α,4α-dihydroxydihydro-β-agarofuran]	17 ± 0.016	14.21 ± 0.035	37.39	0.38 ± 0.007	13.9 ± 0.3	17.6 ± 0.5	non-competitive inhibitor	110	–	–	–
CC(=O)OC1CCC2(C)CCC3CC2(OC3(C)C)C1(C)O (stereo not drawn) [Compound 5, 3α-acetoxy-4α-hydroxydhydro-β-agarofuran]	43 ± 0.015	13.08 ± 0.02	32.7	0.4 ± 0.0014	–	–	–	–	–	–	–
CC1(C)OC23CC1CCC2(C)CCC(OC(=O)c1ccco1)C3CO (stereo not drawn) [Compound 6, 3α-furoyloxy-15-hydroxydihydro-β-agarofuran]	32 ± 0.006	12.69 ± 0.035	97.61	0.13 ± 0.003	–	–	–	–	–	–	–
CC1(C)OC23CC1CCC2(C)CCC(OC(=O)c1ccccc1)C3CO (stereo not drawn) [Compound 7]	–	11.98 ± 0.042	–	0.21 ± 0.008	–	–	–	–	57.05	–	–
CC(=O)O[C@H]1CC[C@](C)(O)[C@]23OC(C)(C)[C@H](C[C@H](OC(=O)c4ccoc4)[C@]12C)[C@H]3OC(=O)c1ccoc1 [Compound 8, 1α-Acetoxy-6β,9β-difuroyloxy-4β-hydroxydihydro-β-agarofuran]	–	–	264.75	0.04 ± 0.007	–	–	–	–	–	738 ± 0.007	10.59 ± 0.02
CC(=O)OC[C@@]12[C@@H](OC(C)=O)CC[C@@H](C)[C@]13OC(C)(C)[C@H](C[C@@H]2OC(=O)c1ccccc1)[C@H]3OC(C)=O [Compound 9, 1α,6β,14-triacetoxy-9β-benzyloxydihydro-β-agarofuran]	695 ± 0.001	8.69 ± 0.03	124.14	0.07 ± 0.004	–	–	–	–	–	–	–
CC(=O)O[C@@H]1[C@@H]2[C@@H](OC(C)=O)[C@]3(OC2(C)C)[C@H](C)CC[C@H](O)[C@@]3(C)[C@H]1OC(=O)c1ccoc1 [Compound 10, 6β,8α-diacetoxy-9β-furoyloxy-1α-hydroxydihydro-β-agarofuran]	–	–	47.37	0.29 ± 0.0003	–	–	–	–	–	740 ± 0.045	13.74 ± 0.1
CC(=O)O[C@@H]1[C@H](OC(=O)c2ccccc2)[C@@]2(C)[C@@H](OC(=O)c3ccccc3)C[C@@H]3[C@@H](OC(C)=O)[C@]2(OC3(C)C)[C@@](C)(O)[C@H]1OC(C)=O [Compound 11]	30 ± 0.06	13.08 ± 0.02	145.33	0.09 ± 0.005	12.1 ± 0.7	13.4 ± 0.2	–	–	–	–	–
CC(=O)OC[C@]12[C@@H](OC(=O)c3ccccc3)[C@H](OC(C)=O)[C@@H]3[C@@H](OC(=O)c4ccccc4)[C@]1(OC3(C)C)[C@@](C)(O)[C@H](OC(C)=O)[C@H](OC(C)=O)[C@@H]2OC(C)=O [Compound 12, 1α,2α,3α,8α,14-pentaacetoxy-6β,9β-dibenzyloxy-4β-hydroxidihydro-β-agarofuran]	–	14.2 ± 0.2	–	0.84 ± 0.012	–	–	–	–	16.92	–	–
CC(=O)O[C@@H]1[C@H]2[C@@H](O)[C@H](OC(=O)c3ccccc3)[C@]3(C)[C@@H](O)CC[C@@H](C)[C@@]13OC2(C)C [Compound 13]	500 ± 0.03	11.36 ± 0.035	103.27	0.11 ± 0.007	–	–	–	–	–	–	–
